Experiment: Stability in vesicles by UV-Vis
Format: physicochemical
Conditions: POPC lipid solution, 2 hours
Method: The spectra obtained over the course of 72 hours for 1d, 2 and 4-8 show similar trends, 3 was not tested because it was unavailable. All spectra show a decrease in the peak at around 400 nm after 6 hours and an increase in the peak at around 300 nm after 72 hours. These changes in spectra […]
72 hours. The absorbance for 6 decreases dramatically for the readings after 6 hours because most […]
S7.2 Stability in Vesicles
Stability studies were performed for the perenosins in vesicles using UV-Vis spectroscopy to probe the lifetime of compounds 1d and 2-8 at pH 7.2 and pH 4.6. Unilamellar vesicles were prepared using previously reported literature procedures7-9. A lipid film of POPC (1-palmitoyl-2-oleoyl-sn-glycero-3-phosphocholine) was prepared from a chloroform solution under reduced pressure and then dried under vacuum for 4 or more hours. The lipid film was rehydrated by vortexing with a solution of phosphate buffered (5 mM) sodium chloride (500 mM). The lipid suspension was then subjected to 9 freeze-thaw cycles and left to rest at room temperature for 30 minutes. After this, the suspension was extruded 25 times through a 400 nm polycarbonate membrane resulting in unilamellar vesicles of a mean diameter of 400 nm. […]
Figure S65. Absorbance spectra taken over 2 hours of 1d (25 mM) in a sodium chloride (500 mM) phosphate buffered (5 mM) lipid solution. a) pH 7.2 b) pH 4.6 […]

SMILES: CCCCCc1cc(/N=C/c2[nH]c(C)cc2C)c2[nH]ccc2c1 [Perenosin 1d]
- stability in vesicles at pH 7.2: stable

Reference: paper PMC5570892, “Indole-based perenosins as highly potent HCl transporters and potential anti-cancer agents” (Scientific Reports, 2017)
